Data from PubChem BioAssay (NCI).
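Dose response: 5 concentrations. Exposure: 48 h. Format: 96-well plates. Endpoint: linear interpolation; highest concentration if not reached. TGI: total growth inhibition.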

Columns and labels:
Assay in all cases: DTP human tumour cell line panel, 48 h
SN12C renal = test system: SN12C renal
SW-620 colon = test system: SW-620 colon
HCC-2998 colon = test system: HCC-2998 colon
HCT-116 colon = test system: HCT-116 colon
786-0 renal = test system: 786-0 renal
SNB-19 CNS = test system: SNB-19 CNS
HCT-15 colon = test system: HCT-15 colon
MCF7 breast = test system: MCF7 breast
OVCAR-3 ovarian = test system: OVCAR-3 ovarian
KM12 colon = test system: KM12 colon
NCI-H460 lung = test system: NCI-H460 lung
IGROV1 ovarian = test system: IGROV1 ovarian
A549 NSCLC = test system: A549 NSCLC
UO-31 renal = test system: UO-31 renal
NCI/ADR-RES ovarian = test system: NCI/ADR-RES ovarian
SK-OV-3 ovarian = test system: SK-OV-3 ovarian
T-47D breast = test system: T-47D breast
ACHN renal = test system: ACHN renal
MDA-N = test system: MDA-N

Row | SMILES | TGI (SN12C renal) [µM] | TGI (SW-620 colon) [µM] | TGI (HCC-2998 colon) [µM] | TGI (HCT-116 colon) [µM] | TGI (786-0 renal) [µM] | TGI (SNB-19 CNS) [µM] | TGI (HCT-15 colon) [µM] | TGI (MCF7 breast) [µM] | TGI (OVCAR-3 ovarian) [µM] | TGI (KM12 colon) [µM] | TGI (NCI-H460 lung) [µM] | TGI (IGROV1 ovarian) [µM] | TGI (A549 NSCLC) [µM] | TGI (UO-31 renal) [µM] | TGI (NCI/ADR-RES ovarian) [µM] | TGI (SK-OV-3 ovarian) [µM] | TGI (T-47D breast) [µM] | TGI (ACHN renal) [µM] | TGI (MDA-N) [µM]
1 | Cc1ccc(OCC2OC(C#N)C(Oc3ccc(C)cc3)C2Oc2ccc(C)cc2)cc1 (stereo not drawn) | > 100 | > 100 | > 100 | > 100 | > 100 | > 100 | > 100 | > 100 | > 100 | > 100 | > 100 | > 100 | > 100 | > 100 | > 100 | > 100 | > 100 | – | –
2 | COC1O[C@@H]2CCN3C(=O)[C@@H](OC(=O)c4ccc([N+](=O)[O-])cc4)[C@H]1C23 (stereo partly drawn) | > 100 | > 100 | > 100 | > 100 | > 100 | – | – | > 100 | > 100 | > 100 | > 100 | > 100 | > 100 | > 100 | > 100 | > 100 | > 100 | > 100 | –
3 | CCOC(=O)CC(=O)C(=O)NNC1=NCCCN1 | > 100 | > 100 | > 100 | > 100 | > 100 | > 100 | > 100 | > 100 | > 100 | > 100 | > 100 | > 100 | > 100 | > 100 | – | > 100 | > 100 | > 100 | > 100
4 | Cc1cc2c(cc1Cl)SC(N/N=C(\N)c1ccc(Cl)cc1)=NS2(=O)=O | > 100 | > 100 | > 100 | > 100 | > 100 | > 100 | > 100 | 64.7 | > 100 | > 100 | > 100 | > 100 | > 100 | > 100 | > 100 | > 100 | > 100 | > 100 | –
5 | O=C(NCc1ccccc1)c1cc2cc(O)c(O)cc2cn1 | > 100 | > 100 | > 100 | > 100 | > 100 | > 100 | > 100 | – | > 100 | > 100 | 91.6 | 73.2 | > 100 | 56.6 | – | > 100 | – | > 100 | –
6 | COC(=O)CCC(NC(=O)C(C)NC(=O)COC1C(O)C(OC(=O)CCNc2c3ccccc3nc3cccc([N+](=O)[O-])c23)OC(OCc2ccccc2)C1NC(C)=O)C(N)=O (stereo not drawn) | > 10 | 4.44 | 5.8 | 9.11 | > 10 | > 10 | > 10 | 9.81 | > 10 | > 10 | > 10 | > 10 | > 10 | > 10 | – | > 10 | > 10 | > 10 | 6.04
7 | OCC1OC(Oc2cc(O)cc(/C=C\c3ccc(O)cc3)c2)C(O)C(O)C1O (stereo not drawn) | > 100 | > 100 | – | > 100 | > 100 | > 100 | > 100 | > 100 | > 100 | > 100 | > 100 | > 100 | > 100 | > 100 | > 100 | > 100 | – | > 100 | > 100
8 | CCOc1ccccc1N=Nc1c(-c2ccccc2)nn(C(=O)CC(=O)Nc2cccc(Cl)c2)c1-c1ccccc1 | > 100 | > 100 | > 100 | > 100 | > 100 | > 100 | – | – | > 100 | > 100 | > 100 | > 100 | > 100 | > 100 | – | > 100 | – | > 100 | –
9 | C[C@]12CCC(=O)C=C1CC[C@@H]1[C@@H]2CC[C@]2(C)C(=O)[C@H](n3ccnc3)C[C@@H]12 | > 100 | > 100 | – | > 100 | > 100 | > 100 | > 100 | > 100 | – | > 100 | > 100 | > 100 | > 100 | > 100 | > 100 | – | – | > 100 | > 100
10 | CCOC(=O)C(Cc1ccccc1)NC(=O)c1ccc(N=NN(C)C)cc1 (stereo not drawn) | > 100 | > 100 | > 100 | > 100 | > 100 | > 100 | > 100 | – | > 100 | > 100 | > 100 | > 100 | > 100 | > 100 | – | > 100 | – | > 100 | –
11 | C=CCNC(=S)N1c2ccccc2NC(=O)CC1C (stereo not drawn) | > 100 | > 100 | – | > 100 | > 100 | > 100 | > 100 | – | > 100 | > 100 | > 100 | > 100 | > 100 | > 100 | – | – | – | > 100 | –
12 | CC1(C)C(O)C[C@]23CCC[C@](C)(C[C@@H](O)C12)C3 (stereo partly drawn) | > 100 | > 100 | – | – | > 100 | > 100 | > 100 | > 100 | > 100 | > 100 | > 100 | > 100 | > 100 | > 100 | > 100 | > 100 | – | > 100 | –
13 | COc1ccc(-c2c(C#N)c(-c3ccc(C)cc3)n(NS(=O)(=O)c3ccccc3)c(=O)c2C#N)cc1 | > 100 | > 100 | > 100 | > 100 | > 100 | > 100 | > 100 | > 100 | > 100 | > 100 | > 100 | > 100 | > 100 | – | > 100 | > 100 | – | > 100 | > 100
14 | COc1ccc(CNC2=C(NC(C)=O)C(=O)c3ccccc3C2=O)cc1 | > 50 | 14.9 | > 50 | 19.9 | > 50 | > 50 | > 50 | – | 20.8 | > 50 | > 50 | > 50 | > 50 | 40.2 | – | > 50 | – | 8.69 | –
